Measurements published in US9738634B2, “Heterocyclic amide compound and herbicide” (SYNGENTA PARTICIPATIONS AG, priority 2013, dated 2017).

Assays:
Type in all cases: in vivo
[1] = tested on: corn; test: Test Example 3: soil treatment, effect on crop; c: corn; conditions: soil treatment, treatment dosage 320 g/ha
Summary of the method: (§1)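 Crop and weed responses were judged three weeks after a uniform surface spray of the water-diluted emulsion at the given g/ha rate. Seeds sat beneath about 1.5 cm of sterilized diluvial soil, and boxes stood in a greenhouse at 25 to 30° C.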

[2] = tested on: Italian ryegrass; test: Test Example 3: weedkilling efficacy through soil treatment; I: Italian ryegrass; conditions: soil treatment, treatment dosage 320 g/ha
Summary of the method: as §1

[3] = tested on: chickweed; test: Test Example 3: weedkilling efficacy through soil treatment; N: chickweed; conditions: soil treatment, treatment dosage 320 g/ha
Summary of the method: as §1

[4] = tested on: oval-leafed pondweed; test: Test Example 1: weedkilling efficacy, preemergent weed treatment in the submerged state; C: oval-leafed pondweed; conditions: treatment dosage 320 g/ha
Summary of the method: (§2)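 Pots of alluvial soil flooded 4 cm deep, sown with barnyard grass, bulrush and oval-leafed pondweed and transplanted with 2.5-leaf rice. Emulsified compound applied to the water surface on sowing day at stated g/ha; greenhouse 25–30 °C, effects assessed 3 weeks after treatment.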

[5] = tested on: black-grass; test: Test Example 3: weedkilling efficacy through soil treatment; H: black-grass; conditions: soil treatment, treatment dosage 320 g/ha
Summary of the method: as §1

[6] = tested on: Indian mallow; test: Test Example 3: weedkilling efficacy through soil treatment; K: Indian mallow; conditions: soil treatment, treatment dosage 320 g/ha
Summary of the method: as §1

[7] = tested on: wheat; test: Test Example 3: soil treatment, effect on crop; e: wheat; conditions: soil treatment, treatment dosage 320 g/ha
Summary of the method: as §1

[8] = tested on: transplanted rice; test: Test Example 1: preemergent weed treatment in the submerged state, effect on crop; a: transplanted rice; conditions: treatment dosage 320 g/ha
Summary of the method: as §2

[9] = tested on: barnyard grass; test: Test Example 3: weedkilling efficacy through soil treatment; F: barnyard grass; conditions: soil treatment, treatment dosage 320 g/ha
Summary of the method: as §1

[10] = tested on: wild oat; test: Test Example 3: weedkilling efficacy through soil treatment; G: wild oat; conditions: soil treatment, treatment dosage 320 g/ha
Summary of the method: as §1

[11] = tested on: fig-leafed goosefoot; test: Test Example 3: weedkilling efficacy through soil treatment; M: fig-leafed goosefoot; conditions: soil treatment, treatment dosage 320 g/ha
Summary of the method: as §1

[12] = tested on: oval-leafed pondweed; test: Test Example 2: weedkilling efficacy, growth period weed treatment in the submerged state; C: oval-leafed pondweed; conditions: treatment dosage 320 g/ha
Summary of the method: (§3)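 Barnyard grass, bulrush and oval-leafed pondweed sown in alluvial soil under 4 cm flooding, greenhouse 25 to 30° C. At 1-2 leaf stage, water-diluted emulsion applied to the water surface at stated g/ha dosages; effects scored 3 weeks later.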

[13] = tested on: barnyard grass; test: Test Example 1: weedkilling efficacy, preemergent weed treatment in the submerged state; A: barnyard grass; conditions: treatment dosage 320 g/ha
Summary of the method: as §2

[14] = tested on: beet; test: Test Example 3: soil treatment, effect on crop; f: beet; conditions: soil treatment, treatment dosage 320 g/ha
Summary of the method: as §1

[15] = tested on: bulrush; test: Test Example 2: weedkilling efficacy, growth period weed treatment in the submerged state; B: bulrush; conditions: treatment dosage 320 g/ha
Summary of the method: as §3

[16] = tested on: directly sown rice; test: Test Example 3: soil treatment, effect on crop; b: directly sown rice; conditions: soil treatment, treatment dosage 320 g/ha
Summary of the method: as §1

[17] = tested on: bulrush; test: Test Example 1: weedkilling efficacy, preemergent weed treatment in the submerged state; B: bulrush; conditions: treatment dosage 320 g/ha
Summary of the method: as §2

[18] = tested on: catchweed; test: Test Example 3: weedkilling efficacy through soil treatment; O: catchweed; conditions: soil treatment, treatment dosage 320 g/ha
Summary of the method: as §1

[19] = tested on: barnyard grass; test: Test Example 2: weedkilling efficacy, growth period weed treatment in the submerged state; A: barnyard grass; conditions: treatment dosage 320 g/ha
Summary of the method: as §3

[20] = tested on: common wind-grass; test: Test Example 3: weedkilling efficacy through soil treatment; J: common wind-grass; conditions: soil treatment, treatment dosage 320 g/ha
Summary of the method: as §1

[21] = tested on: birds-eye speedwell; test: Test Example 3: weedkilling efficacy through soil treatment; p: birds-eye speedwell; conditions: soil treatment, treatment dosage 320 g/ha
Summary of the method: as §1

[22] = tested on: crabgrass; test: Test Example 3: weedkilling efficacy through soil treatment; D: crabgrass; conditions: soil treatment, treatment dosage 320 g/ha
Summary of the method: as §1

[23] = tested on: redroot pigweed; test: Test Example 3: weedkilling efficacy through soil treatment; L: redroot pigweed; conditions: soil treatment, treatment dosage 320 g/ha
Summary of the method: as §1

[24] = tested on: green foxtail; test: Test Example 3: weedkilling efficacy through soil treatment; E: green foxtail; conditions: soil treatment, treatment dosage 320 g/ha
Summary of the method: as §1

[25] = tested on: soybean; test: Test Example 3: soil treatment, effect on crop; d: soybean; conditions: soil treatment, treatment dosage 320 g/ha
Summary of the method: as §1

[26] = tested on: rapeseed; test: Test Example 3: soil treatment, effect on crop; g: rapeseed; conditions: soil treatment, treatment dosage 320 g/ha
Summary of the method: as §1

SMILES	c: corn, effect on crop grade [1]	I: Italian ryegrass, weedkilling efficacy grade [2]	N: chickweed, weedkilling efficacy grade [3]	C: oval-leafed pondweed, weed kill grade [4]	H: black-grass, weedkilling efficacy grade [5]	K: Indian mallow, weedkilling efficacy grade [6]	e: wheat, effect on crop grade [7]	a: transplanted rice, effect on crop grade [8]	F: barnyard grass, weedkilling efficacy grade [9]	G: wild oat, weedkilling efficacy grade [10]	M: fig-leafed goosefoot, weedkilling efficacy grade [11]	C (oval-leafed pondweed) weedkilling efficacy grade [12]	A: barnyard grass, weed kill grade [13]	f: beet, effect on crop grade [14]	B (bulrush) weedkilling efficacy grade [15]	b: directly sown rice, effect on crop grade [16]	B: bulrush, weed kill grade [17]	O: catchweed, weedkilling efficacy grade [18]	A (barnyard grass) weedkilling efficacy grade [19]	J: common wind-grass, weedkilling efficacy grade [20]	other results
COc1cc(Cl)cc(NC(=O)C(C)(C)N2COCN(c3ccccc3)C2=O)n1 [A-2-32]	1 (weed kill ratio 5% or more, less than 20%)	5 (weed kill ratio 90% or more, (practically complete withering))	4 (weed kill ratio 70% or more, less than 90%)	5 (weed kill ratio 90% or more, (practically complete withering))	5 (weed kill ratio 90% or more, (practically complete withering))	0 (weed kill ratio 5% or less (practically no effect))	0 (weed kill ratio 5% or less (practically no effect))	4 (weed kill ratio 70% or more, less than 90%)	5 (weed kill ratio 90% or more, (practically complete withering))	5 (weed kill ratio 90% or more, (practically complete withering))	5 (weed kill ratio 90% or more, (practically complete withering))	5 (weed kill ratio 90% or more, (practically complete withering))	5 (weed kill ratio 90% or more, (practically complete withering))	4 (weed kill ratio 70% or more, less than 90%)	5 (weed kill ratio 90% or more, (practically complete withering))	2 (weed kill ratio 20% or more, less than 40%)	5 (weed kill ratio 90% or more, (practically complete withering))	5 (weed kill ratio 90% or more, (practically complete withering))	5 (weed kill ratio 90% or more, (practically complete withering))	5 (weed kill ratio 90% or more, (practically complete withering))	P: birds-eye speedwell, weedkilling efficacy grade [21]: 5 (weed kill ratio 90% or more, (practically complete withering)); D: crabgrass, weedkilling efficacy grade [22]: 5 (weed kill ratio 90% or more, (practically complete withering)); L: redroot pigweed, weedkilling efficacy grade [23]: 3 (weed kill ratio 40% or more, less than 70%); E: green foxtail, weedkilling efficacy grade [24]: 5 (weed kill ratio 90% or more, (practically complete withering)); d: soybean, effect on crop grade [25]: 0 (weed kill ratio 5% or less (practically no effect)); g: rapeseed, effect on crop grade [26]: 4 (weed kill ratio 70% or more, less than 90%)
Cc1cc(F)nc(NC(=O)C(C)(C)N2COCN(c3ccccc3)C2=O)c1 [A-2-20]	1 (weed kill ratio 5% or more, less than 20%)	5 (weed kill ratio 90% or more, (practically complete withering))	4 (weed kill ratio 70% or more, less than 90%)	5 (weed kill ratio 90% or more, (practically complete withering))	5 (weed kill ratio 90% or more, (practically complete withering))	4 (weed kill ratio 70% or more, less than 90%)	3 (weed kill ratio 40% or more, less than 70%)	3 (weed kill ratio 40% or more, less than 70%)	5 (weed kill ratio 90% or more, (practically complete withering))	5 (weed kill ratio 90% or more, (practically complete withering))	4 (weed kill ratio 70% or more, less than 90%)	5 (weed kill ratio 90% or more, (practically complete withering))	5 (weed kill ratio 90% or more, (practically complete withering))	4 (weed kill ratio 70% or more, less than 90%)	5 (weed kill ratio 90% or more, (practically complete withering))	5 (weed kill ratio 90% or more, (practically complete withering))	5 (weed kill ratio 90% or more, (practically complete withering))	5 (weed kill ratio 90% or more, (practically complete withering))	5 (weed kill ratio 90% or more, (practically complete withering))	5 (weed kill ratio 90% or more, (practically complete withering))	P: birds-eye speedwell, weedkilling efficacy grade [21]: 5 (weed kill ratio 90% or more, (practically complete withering)); D: crabgrass, weedkilling efficacy grade [22]: 5 (weed kill ratio 90% or more, (practically complete withering)); L: redroot pigweed, weedkilling efficacy grade [23]: 4 (weed kill ratio 70% or more, less than 90%); E: green foxtail, weedkilling efficacy grade [24]: 5 (weed kill ratio 90% or more, (practically complete withering)); d: soybean, effect on crop grade [25]: 3 (weed kill ratio 40% or more, less than 70%); g: rapeseed, effect on crop grade [26]: 4 (weed kill ratio 70% or more, less than 90%)
CSc1nnc(NC(=O)C(C)(C)N2COCN(c3ccccc3)C2=O)s1 [A-1-15]	0 (weed kill ratio 5% or less (practically no effect))	4 (weed kill ratio 70% or more, less than 90%)	0 (weed kill ratio 5% or less (practically no effect))	5 (weed kill ratio 90% or more, (practically complete withering))	1 (weed kill ratio 5% or more, less than 20%)	0 (weed kill ratio 5% or less (practically no effect))	0 (weed kill ratio 5% or less (practically no effect))	0 (weed kill ratio 5% or less (practically no effect))	0 (weed kill ratio 5% or less (practically no effect))	0 (weed kill ratio 5% or less (practically no effect))	0 (weed kill ratio 5% or less (practically no effect))	5 (weed kill ratio 90% or more, (practically complete withering))	4 (weed kill ratio 70% or more, less than 90%)	0 (weed kill ratio 5% or less (practically no effect))	5 (weed kill ratio 90% or more, (practically complete withering))	0 (weed kill ratio 5% or less (practically no effect))	5 (weed kill ratio 90% or more, (practically complete withering))	0 (weed kill ratio 5% or less (practically no effect))	3 (weed kill ratio 40% or more, less than 70%)	5 (weed kill ratio 90% or more, (practically complete withering))	P: birds-eye speedwell, weedkilling efficacy grade [21]: 3 (weed kill ratio 40% or more, less than 70%); D: crabgrass, weedkilling efficacy grade [22]: 0 (weed kill ratio 5% or less (practically no effect)); L: redroot pigweed, weedkilling efficacy grade [23]: 0 (weed kill ratio 5% or less (practically no effect)); E: green foxtail, weedkilling efficacy grade [24]: 0 (weed kill ratio 5% or less (practically no effect)); d: soybean, effect on crop grade [25]: 0 (weed kill ratio 5% or less (practically no effect)); g: rapeseed, effect on crop grade [26]: 1 (weed kill ratio 5% or more, less than 20%)
